The record followed here is US8912209B2, “Rock inhibitors” (Amakem NV, priority 2010, dated 2014).

The target in the assay is T1, ROCKα/ROCKII (Homo sapiens, UniProt O75116).
T1 construct: purchased Upstate Biotechnology 14-451
T1 sequence (O75116 whole entry): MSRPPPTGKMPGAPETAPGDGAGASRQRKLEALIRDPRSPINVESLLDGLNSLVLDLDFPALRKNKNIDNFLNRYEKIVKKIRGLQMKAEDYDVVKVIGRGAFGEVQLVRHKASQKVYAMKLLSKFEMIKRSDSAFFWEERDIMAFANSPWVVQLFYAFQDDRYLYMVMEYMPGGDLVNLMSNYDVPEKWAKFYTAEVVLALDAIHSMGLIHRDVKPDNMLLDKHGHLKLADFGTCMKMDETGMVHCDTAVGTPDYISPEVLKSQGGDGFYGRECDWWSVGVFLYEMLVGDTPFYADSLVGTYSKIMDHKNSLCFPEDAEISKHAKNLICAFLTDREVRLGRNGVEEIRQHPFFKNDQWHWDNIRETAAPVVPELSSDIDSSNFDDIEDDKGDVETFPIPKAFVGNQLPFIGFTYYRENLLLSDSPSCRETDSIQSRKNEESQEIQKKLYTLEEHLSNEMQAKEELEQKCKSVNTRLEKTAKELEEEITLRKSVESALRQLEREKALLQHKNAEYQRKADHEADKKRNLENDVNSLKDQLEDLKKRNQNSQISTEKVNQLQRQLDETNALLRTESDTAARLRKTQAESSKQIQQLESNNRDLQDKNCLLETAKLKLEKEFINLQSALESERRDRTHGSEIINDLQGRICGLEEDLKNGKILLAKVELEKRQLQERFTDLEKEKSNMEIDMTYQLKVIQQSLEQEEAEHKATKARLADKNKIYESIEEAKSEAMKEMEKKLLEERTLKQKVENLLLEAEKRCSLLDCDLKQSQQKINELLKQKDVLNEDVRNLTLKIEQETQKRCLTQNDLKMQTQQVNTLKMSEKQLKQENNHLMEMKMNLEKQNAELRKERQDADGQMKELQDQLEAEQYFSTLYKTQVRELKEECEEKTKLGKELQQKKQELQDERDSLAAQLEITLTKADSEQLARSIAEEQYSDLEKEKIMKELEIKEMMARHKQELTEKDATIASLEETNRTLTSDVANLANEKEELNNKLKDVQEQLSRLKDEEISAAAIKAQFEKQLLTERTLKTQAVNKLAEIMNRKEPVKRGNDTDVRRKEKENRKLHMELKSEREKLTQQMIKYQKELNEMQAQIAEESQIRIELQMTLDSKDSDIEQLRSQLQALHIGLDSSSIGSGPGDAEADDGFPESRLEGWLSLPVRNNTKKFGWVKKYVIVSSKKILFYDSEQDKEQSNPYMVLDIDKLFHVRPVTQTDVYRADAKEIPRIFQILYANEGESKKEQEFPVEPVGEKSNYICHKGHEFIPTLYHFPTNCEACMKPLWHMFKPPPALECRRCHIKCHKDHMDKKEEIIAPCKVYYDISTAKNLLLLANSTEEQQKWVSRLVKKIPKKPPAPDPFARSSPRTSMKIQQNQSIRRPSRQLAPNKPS
The assay can be described thus: ROCK inhibition, Method 2 fluorescence polarization (FP) assay, ROCK IMAP Kit. The class given is biochemical. The note with it: 10 μM ATP, read-out: IC50 Meth. 2. The method, then: The inhibition assays were performed with a fluorescence polarization (FP) assay using the commercially available ROCK IMAP Kit from Molecular Devices (Product ID. No. R8093), essentially in accordance with the protocol supplied by the manufacturer. […] The enzyme mix ROCKα/ROCKII was obtained from Upstate Biotechnology (Product ID No 14-451).
In summary, all compounds were screened in the wells of a 384 well plate for enzymatic inhibition with concentrations varying from 100 μM to 0.3 nM using a stepwise 3 (or 2)-fold dilution.
To perform the assay, 1 μl of a solution of the compound to be tested in DMSO (at each concentration) was added to 2 μl of a solution of the enzyme in 10 mM Tris-HCl, 10 mM MgCl2, 0.1% BSA, 0.05% NaN3, pH 7,2. The final concentration of the enzyme was 2.6 nM.
After incubating for 30 minutes at RT, 2 μl of a mixture of ATP and the protein substrate in 10 mM Tris-HCl, 10 mM MgCl2, 0.1% BSA, 0.05% NaN3, pH 7.2 was added. The final concentration of the ATP was 10 μM and final concentration of protein substrate was 0.2 μM.
After incubating for 60 minutes at RT, 12 μl of the IMAP Binding Solution (mix of the IMAP Binding Buffer A (1×) and the IMAP Binding Reagent (from the ROCK IMAP kit)) was added.
The mixture thus obtained (total volume: 17 μl) was incubated for 60 minutes at RT, upon which the fluorescence polarization was measured using an automated plate reader (Perkin Elmer, Model Envision 2100-0010 HTS) with FP filters: excitation filter FITC FP 480 and emission filters FITC FP P-pol 535 and FITC FP S-pol 535 (Perkin-Elmer). The results were fitted to a curve using the XL-Fit algorithm and IC50 values were calculated for each fitted curve, again using the XL-Fit algorithm.
(Polarisation of emitted light reports the rotation of a fluorescent probe.)
As to `CC(N)c1ccc(C(=O)Nc2ccncc2)cc1-c1cccc(C(=O)OCCCCCl)c1` (centres unmarked) [Compound 69, 2′-(1-Amino-ethyl)-5′-(pyridin-4-ylcarbamoyl)-biphenyl-3-carboxylic acid 4-chloro-butyl ester], the IC50 (usually the concentration at which inhibition is half-maximal) was less than 100 nM.

On to `CC(N)c1ccc(C(=O)Nc2ccncc2)cc1-c1cccc(C(=O)Oc2ccc(F)cc2)c1` (centres unmarked) [Compound 72, 2′-(1-Amino-ethyl)-5′-(pyridin-4-ylcarbamoyl)-biphenyl-3-carboxylic acid 4-fluoro-phenyl ester], for which the IC50 was less than 100 nM.

In the case of `Cc1ccc(OC(=O)c2cccc(-c3cc(C(=O)Nc4ccncc4)ccc3C(C)N)c2)cc1` (centres unmarked) [Compound 73, 2′-(1-Amino-ethyl)-5′-(pyridin-4-ylcarbamoyl)-biphenyl-3-carboxylic acid p-tolyl ester], the IC50 was less than 100 nM.

Take `COc1cccc(OC)c1OC(=O)c1cccc(-c2cc(C(=O)Nc3ccncc3)ccc2C(C)N)c1` (centres unmarked) [Compound 74, 2′-(1-Amino-ethyl)-5′-(pyridin-4-ylcarbamoyl)-biphenyl-3-carboxylic acid 2,6-dimethoxy-phenyl ester]: the IC50 is 100 to 1000 nM. To `COc1cc(OC)cc(OC(=O)c2cccc(-c3cc(C(=O)Nc4ccncc4)ccc3C(C)N)c2)c1` (centres unmarked) [Compound 75, 2′-(1-Amino-ethyl)-5′-(pyridin-4-ylcarbamoyl)-biphenyl-3-carboxylic acid 3,5-dimethoxy-phenyl ester] belongs less than 100 nM.

Consider `COc1cc(OC)cc(OC(=O)c2cccc(-c3cc(C(=O)Nc4ccncc4F)ccc3C(C)N)c2)c1` (centres unmarked) [Compound 76, 2′-(1-Amino-ethyl)-5′-(3-fluoro-pyridin-4-ylcarbamoyl)-biphenyl-3-carboxylic acid 3,5-dimethoxy-phenyl ester], for which the IC50 lay in the range of 100 to 1000 nM.

Take `COc1ccc(OC(=O)c2cccc(-c3cc(C(=O)Nc4ccncc4)ccc3C(C)N)c2)cc1OC` (centres unmarked) [Compound 77, 2′-(1-Amino-ethyl)-5′-(pyridin-4-ylcarbamoyl)-biphenyl-3-carboxylic acid 3,4-dimethoxy-phenyl ester]: the IC50 was less than 100 nM. To `COc1ccc(OC(=O)c2cccc(-c3cc(C(=O)Nc4ccncc4F)ccc3C(C)N)c2)cc1OC` (centres unmarked) [Compound 78, 2′-(1-Amino-ethyl)-5′-(3-fluoro-pyridin-4-ylcarbamoyl)-biphenyl-3-carboxylic acid 3,4-dimethoxy-phenyl ester] belongs less than 100 nM. To `COc1cc(OC(=O)c2cccc(-c3cc(C(=O)Nc4ccncc4F)ccc3C(C)N)c2)cc(OC)c1OC` (centres unmarked) [Compound 79, 2′-(1-Amino-ethyl)-5′-(3-fluoro-pyridin-4-ylcarbamoyl)-biphenyl-3-carboxylic acid 3,4,5-trimethoxy phenylester] belongs less than 100 nM; to `COc1cc(OC(=O)c2cccc(-c3cc(C(=O)Nc4ccncc4)ccc3C(C)N)c2)cc(OC)c1OC` (centres unmarked) [Compound 80, 2′-(1-Amino-ethyl)-5′-(pyridin-4-ylcarbamoyl)-biphenyl-3-carboxylic acid 3,4,5-trimethoxy-phenyl ester], 100 to 1000 nM. To `COc1ccc(OC(=O)c2cccc(-c3cc(C(=O)Nc4ccncc4)ccc3C(C)N)c2)c(OC)c1OC` (centres unmarked) [Compound 81, 2′-(1-Amino-ethyl)-5′-(pyridin-4-ylcarbamoyl)-biphenyl-3-carboxylic acid 2,3,4-trimethoxy-phenyl ester] belongs less than 100 nM; to `CSc1ccc(OC(=O)c2cccc(-c3cc(C(=O)Nc4ccncc4)ccc3C(C)N)c2)cc1` (centres unmarked) [Compound 82, 2′-(1-Amino-ethyl)-5′-(pyridin-4-ylcarbamoyl)-biphenyl-3-carboxylic acid 4-methylsulfanyl-phenyl ester], less than 100 nM.

For `CC(N)c1ccc(C(=O)Nc2ccncc2)cc1-c1cccc(C(=O)OCc2c(F)c(F)c(F)c(F)c2F)c1` (centres unmarked) [Compound 83, 2′-(1-Amino-ethyl)-5′-(pyridin-4-ylcarbamoyl)-biphenyl-3-carboxylic acid pentafluoro-phenylmethyl ester], the IC50 is 100 to 1000 nM.

Take `CC(N)c1ccc(C(=O)Nc2ccncc2)cc1-c1cccc(C(=O)OCc2ccc(Br)cc2)c1` (centres unmarked) [Compound 84, 2′-(1-Amino-ethyl)-5′-(pyridin-4-ylcarbamoyl)-biphenyl-3-carboxylic acid 4-bromo-benzyl ester]: the IC50 was in the range of 100 to 1000 nM. To `CC(N)c1ccc(C(=O)Nc2ccncc2)cc1-c1cccc(C(=O)OCc2ccccc2[N+](=O)[O-])c1` (centres unmarked) [Compound 85, 2′-(1-Amino-ethyl)-5′-(pyridin-4-ylcarbamoyl)-biphenyl-3-carboxylic acid 2-nitro-benzyl ester] belongs 100 to 1000 nM. To `CC(N)c1ccc(C(=O)Nc2ccncc2)cc1-c1cccc(C(=O)OCCc2ccccc2)c1` (centres unmarked) [Compound 87, 2′-(1-Amino-ethyl)-5′-(pyridin-4-ylcarbamoyl)-biphenyl-3-carboxylic acid phenethyl ester] belongs 100 to 1000 nM. To `CC(N)c1ccc(C(=O)Nc2ccncc2)cc1-c1cccc(C(=O)OCCc2cccs2)c1` (centres unmarked) [Compound 91, 2′-(1-Amino-ethyl)-5′-(pyridin-4-ylcarbamoyl)-biphenyl-3-carboxylic acid 2-thiophen-2-yl-ethyl ester] belongs 100 to 1000 nM; to `CC(N)c1ccc(C(=O)Nc2ccncc2)cc1-c1cccc(C(=O)OCCc2ccsc2)c1` (centres unmarked) [Compound 92, 2′-(1-Amino-ethyl)-5′-(pyridin-4-ylcarbamoyl)-biphenyl-3-carboxylic acid 2-thiophen-3-yl-ethyl ester], 100 to 1000 nM. For `CC(N)c1ccc(C(=O)Nc2ccncc2)cc1-c1cccc(C(=O)OCCc2ccccn2)c1` (centres unmarked) [Compound 93, 2′-(1-Amino-ethyl)-5′-(pyridin-4-ylcarbamoyl)-biphenyl-3-carboxylic acid 2-pyridin-2-yl-ethyl ester], the IC50 was less than 100 nM. Take `CC(N)c1ccc(C(=O)Nc2ccncc2)cc1-c1cccc(C(=O)OCC2CCc3ccccc3C2)c1` (centres unmarked) [Compound 94, 2′-(1-Amino-ethyl)-5′-(pyridin-4-ylcarbamoyl)-biphenyl-3-carboxylic acid 1,2,3,4-tetrahydro-naphthalen-2-ylmethyl ester]: the IC50 was in the range of 100 to 1000 nM.

Regarding `CC(N)c1ccc(C(=O)Nc2ccncc2)cc1-c1cccc(C(=O)OCCN2C(=O)c3ccccc3C2=O)c1` (centres unmarked) [Compound 95, 2′-(1-Amino-ethyl)-5′-(pyridin-4-ylcarbamoyl)-biphenyl-3-carboxylic acid 2-(1,3-dioxo-1,3-dihydro-isoindol-2-yl)-ethyl ester], the IC50 fell in the range of 100 to 1000 nM. The same measure for `CC(N)c1ccc(C(=O)Nc2ccncc2)cc1-c1cccc(C(=O)OCC(=O)c2ccc(Br)cc2)c1` (centres unmarked) [Compound 96, 2′-(1-Amino-ethyl)-5′-(pyridin-4-ylcarbamoyl)-biphenyl-3-carboxylic acid 2-(4-bromo-phenyl)-2-oxo-ethyl ester]: less than 100 nM; for `CC(N)c1ccc(C(=O)Nc2ccncc2)cc1-c1cccc(C(=O)SC(C)(C)C)c1` (centres unmarked) [Compound 101, 2′-(1-Amino-ethyl)-5′-(pyridin-4-ylcarbamoyl)-biphenyl-3-carbothioic acid S-tert-butyl ester]: less than 100 nM; for `CCOC(=O)CCNC(=O)c1cccc(-c2cc(C(=O)Nc3ccncc3)ccc2C(C)N)c1` (centres unmarked) [Compound 105, 3-{[2′-(1-Amino-ethyl)-5′-(pyridin-4-ylcarbamoyl)-biphenyl-3-carbonyl]-amino}-propionic acid ethyl ester]: less than 100 nM. For the compound `CC(N)c1ccc(C(=O)Nc2ccncc2)cc1-c1cccc(C(=O)NC2CCSC2=O)c1` (centres unmarked) [Compound 112, 6-(1-Amino-ethyl)-biphenyl-3,3′-dicarboxylic acid 3′-[(2-oxo-tetrahydro-thiophen-3-yl)-amide] 3-pyridin-4-ylamide], the IC50 was less than 100 nM. On to `CC(N)c1ccc(C(=O)Nc2ccncc2)cc1-c1cccc(OCCSC2CCOC2=O)c1` (centres unmarked) [Compound 130, 6-(1-Amino-ethyl)-3′-[2-(2-oxo-tetrahydro-furan-3-ylsulfanyl)-ethoxy]-biphenyl-3-carboxylylic acid pyridin-4-ylamide], for which the half-inhibitory concentration (IC50) was less than 100 nM. To `CCCOC(=O)COc1cccc(-c2cc(C(=O)Nc3ccncc3F)ccc2C(C)N)c1` (centres unmarked) [Compound 141, [2′-(1-Amino-ethyl)-5′-(3-fluoro-pyridin-4-ylcarbamoyl)-biphenyl-3-yloxy]-acetic acid propyl ester] belongs 100 to 1000 nM; to `CC(N)c1ccc(C(=O)Nc2ccncc2F)cc1-c1cccc(OCC(=O)Oc2ccccc2)c1` (centres unmarked) [Compound 142, [2′-(1-Amino-ethyl)-5′-(3-fluoro-pyridin-4-ylcarbamoyl)-biphenyl-3-yloxy]-acetic acid phenyl ester], 100 to 1000 nM; to `CCOC(=O)CSCC(=O)Nc1cccc(-c2cc(C(=O)Nc3ccncc3)ccc2C(C)N)c1` (centres unmarked) [Compound 154, {[2′-(1-Aminoethyl)-5′-(pyridin-4-ylcarbamoyl)-biphenyl-3-ylcarbamoyl]-methylsulfanyl}-acetic acid ethyl ester], less than 100 nM.
